Experimental findings from patent publication US20220152060A1, “PHYTOECDYSONES AND THE DERIVATIVES THEREOF FOR USE IN THE TREATMENT OF IMPAIRED LUNG FUNCTION” (BIOPHYTIS, priority 2019, published 2022) are described below.

Structures are written as SMILES.

The subject of experiment [1] is mdx mice. The experiment can be described thus: piston ventilator (FlexiVent) forced oscillation measurement of pulmonary resistance, compliance and elastance. Type of experiment: in vivo. To be noted: 50 mg/kg/day oral. The method, then: Male mice C57BL/10ScSnJ (healthy mice denoted as “C57Black10” in the figures) and C57BL/10ScSn-Dmdmdx/J (murine model of Duchenne muscular dystrophy, denoted “mdx” in the figures) aged 12 weeks, have been used. The mice have been divided into three groups of 12 mice each: an untreated group of healthy control mice C57Black10, a group of untreated mdx mice (mdx) and a group of mice chronically treated with a dose of 50 mg/kg/day, orally in the drinking water. The respiratory function of all the mice has been evaluated by whole-body plethysmography before the start of the study, (D0) then at 30 days (D30) and 60 days (D60) after the start of the treatment. After two months of treatment, the respiratory function has been invasively evaluated, just before sacrifice of the animal, by piston ventilated controlled by a central control unit (commonly called “computer”), said ventilator using the forced oscillation technique, such as the device known by the name FlexiVent™, in order to determine more directly the mechanical parameters of the respiratory system. In order to determine more directly the mechanical parameters of the respiratory system and the impact of a chronic treatment over a period of two months by BIO101 (D60) on these parameters, the dynamic pulmonary resistance was measured using a piston ventilator system as previously described, in response to increasing doses of metacholine. The mice were anaesthetized and connected by an endotracheal cannula to the piston ventilator system. After the start of mechanical ventilation, each mouse received an intraperitoneal injection of 0.1 mL of a 10 mg/mL rocuronium bromide solution. The animal was ventilated at a respiratory rate of 150 respirations/minute and with a tidal volume of 10 mL/kg against a final positive expiratory pressure of 3 cm H2O. The respiratory mechanisms were evaluated using a forced oscillation maneuver with a duration of 1.2 seconds (2.5 Hz) and a 3-second wideband forced oscillation man oeuvre containing 13 primordial frequencies between 1 and 20.5 Hz. The resistance of the respiratory system (R) was calculated using a microcomputer type central processing unit connected to the piston ventilator system and comprising, in particular, software for performing said calculation. The two maneuvers were carried out alternately every 15 seconds after each nebulization with a metacholine aerosol, in order to measure the change in the response time of the bronchoconstriction induced by metacholine. The pulmonary resistance, compliance and elastance could thus be determined.

The subject of experiment [2] is mdx mice. The experiment can be described thus: whole-body plethysmography of respiratory function in response to metacholine. Type of experiment: in vivo. As for the experimental part:
Male mice C57BL/10ScSnJ (healthy mice denoted as “C57Black10” in the figures) and C57BL/10ScSn-Dmdmdx/J (murine model of Duchenne muscular dystrophy, denoted “mdx” in the figures) aged 12 weeks, have been used. The mice have been divided into three groups of 12 mice each: an untreated group of healthy control mice C57Black10, a group of untreated mdx mice (mdx) and a group of mice chronically treated with a dose of 50 mg/kg/day, orally in the drinking water. The respiratory function of all the mice has been evaluated by whole-body plethysmography before the start of the study, (D0) then at 30 days (D30) and 60 days (D60) after the start of the treatment. After two months of treatment, the respiratory function has been invasively evaluated, just before sacrifice of the animal, by piston ventilated controlled by a central control unit (commonly called “computer”), said ventilator using the forced oscillation technique, such as the device known by the name FlexiVent™, in order to determine more directly the mechanical parameters of the respiratory system. In order to precisely monitor the change in respiratory function over the course of the treatment, whole-body plethysmography analyses (Emka Technologies, Paris, France) have been performed on the healthy control mice C57Black10, on the untreated mdx mice and on the mdx mice having been treated with BIO101. The advantages of this technique reside in the fact that it allows monitoring to be performed on an awake animal, freely moving in a hermetic enclosure, and that this is performed in a non-invasive manner. Consequently, the stress due to handling of the animals is reduced as it is possible to repeat the measurements over prolonged periods. Barometric plethysmography is therefore frequently used for measuring bronchial reactivity in small animals (Chong et al., 1998; Djuric et al., 1998; Hoffman et al., 1999). The pressure variations measured with respect to a reference chamber make it possible to define various respiratory parameters such as the peaks and times of inspiratory and expiratory pressure as well as a dimensionless quantity called Penh (enhanced Pause) which allows the bronchoconstriction to be evaluated. More specifically, the Penh, calculated from the pressure signal (Pb) in the chamber, is an important index to obtain, because the variations in Penh change in parallel with those of the respiratory resistance and it therefore represents a predictive parameter for changes in the resistive properties of the respiratory system (Hamelmann et al., 1997; Bergren, 2001; Onclinx et al., 2003). The following values have been calculated from the filtered Pb: the maximum variation in Pb during expiration (PEP: Peak Expiratory Pressure), the maximum change in Pb during inspiration (PIP: Peak Inspiratory Pressure) and the time interval (TR). The Penh value has then been calculated as follows: […] [Math. 1] where Pause=(TE−TR)/TE [Math. 2] • TE being the expiration time (Adler et al., 2004). Moreover, the peak inspiratory flow (PIF) and the peak expiratory flow (PEF), the relaxation time (RT) and the respiratory rate (BF) have also been measured and shown. The Penh value has been measured before the start of the treatment (D0), 30 days after the start of the treatment (D30) and 60 days after the treatment (D60). First, the entire cohort of mdx mice (n=24) were compared with healthy mice C57Black10 (n=12), before receiving the treatment. Awake mice were exposed to increasing doses of metacholine aerosols generated by a nebulizer containing 0 to 40 mg/mL of metacholine in PBS.

For `CC(C)(O)CC[C@@H](O)[C@](C)(O)[C@H]1CC[C@@]2(O)C3=CC(=O)[C@@H]4C[C@@H](O)[C@@H](O)C[C@]4(C)[C@H]3CC[C@]12C` [BIO101, 20-hydroxyecdysone], the “resistance of the airways (pulmonary resistance)” value in the experiment on mdx mice [1] (60 days, metacholine 0 to 20 mg/mL, vs untreated mdx mice, p<0.0001) is given as “significantly lower resistance of the airways”. In the experiment with mdx mice [1] (D60, metacholine 20 mg/mL, untreated mdx 0.017, healthy 0.031 (FIG. 8B)), this compound yielded a pulmonary compliance of 0.029 mL/cmH2O. The compound also gave a pulmonary elastance in the experiment on mdx mice [1] (D60, metacholine 20 mg/mL, untreated mdx 34.8, healthy 62.8 as printed (FIG. 8C)) of 69.1 cmH2O/mL. For the same compound, the “pulmonary compliance, change at increasing metacholine doses” value with mdx mice [1] (two months, p<0.0001 (FIG. 7B)) is “significantly improved”. In the experiment on mdx mice [1] (two months, p<0.0001 (FIG. 7C)), the “pulmonary elastance, change at increasing metacholine doses” value is on record as “significantly improved”. Also, the relaxation time result in the experiment on mdx mice [2] (50 mg/kg/day oral, 30 days, compared with untreated mdx mice, p<0.05 (FIG. 3D)) is on record as “clear improvement in relaxation time”; in the experiment with mdx mice [2] (50 mg/kg/day oral, 60 days (FIG. 4D)), “trend towards improved relaxation time”. The “peak inspiratory flow (cited to FIG. 3B)” value in the experiment on mdx mice [2] (50 mg/kg/day oral, 30 days, in comparison to D0) is “remain unchanged”. Besides, the respiratory rate entry with mdx mice [2] (50 mg/kg/day oral, 30 days, in comparison to D0 (FIG. 3E)) is listed as “remain unchanged”; in the experiment on mdx mice [2] (50 mg/kg/day oral, 60 days (FIG. 4E)) it was “remain unchanged”. For the same compound, the “peak inspiratory flow (cited to FIG. 3C)” value with mdx mice [2] (50 mg/kg/day oral, 30 days, in particular equilibrium state or low metacholine dose, p<0.05) is recorded as “increase in peak inspiratory flow”. Besides, the peak expiratory flow entry in the experiment with mdx mice [2] (50 mg/kg/day oral, 60 days) is “remain unchanged”. In addition, the peak inspiratory flow entry in the experiment with mdx mice [2] (50 mg/kg/day oral, 60 days, p<0.05 (FIG. 4B)) is “significant improvement”. Further, in the experiment with mdx mice [2] (50 mg/kg/day oral, D60, metacholine dose of 40 mg/mL, untreated mdx 4, healthy 1.04 (FIG. 6B)), the “mean Penh value” came to 1.87. Also, the “Penh in response to metacholine” value in the experiment with mdx mice [2] (50 mg/kg/day oral, after 60 days of treatment, compared to untreated mdx mice, p<0.0001 (FIG. 4A)) is given as “significant reduction in the Penh”; in the experiment on mdx mice [2] (50 mg/kg/day orally in drinking water, after 30 days of treatment, compared to mdx mice at D0, p<0.001 (FIG. 3A)), “significant reduction in Penh”.
